For experiment [1], the target named is T1, Recombinant STAT3 protein (STAT3 (G127-I722)) (Homo sapiens, UniProt P40763).
T1 construct: Recombinant STAT3 protein (STAT3 (G127-I722))
Put plainly: STAT3 Fluorescence Polarization (FP) Assay. The experiment is classed as binding. The note with it: STAT3 (G127-I722) 25 nM, probe 5-FAM-GpYLPQTV-NH2 2 nM, 45-minute incubation; read-out: STAT3 (FP assay IC50 class). In outline: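 Displacement of a 2 nM 5-FAM-labelled pY peptide (GpYLPQTV) from 25 nM recombinant STAT3 (G127-I722) was monitored by fluorescence polarization. Incubation lasted 45 min at room temperature in pH 7.4 HEPES buffer containing 1% DMSO.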
(Polarisation of emitted light reports the rotation of a fluorescent probe.)

The target of experiment [2] is T2, Recombinant STAT6 protein (STAT6 (W123-T658)) (Homo sapiens, UniProt P42226).
T2 construct: Recombinant STAT6 protein (STAT6 (W123-T658))
T2 sequence (P42226 123-658): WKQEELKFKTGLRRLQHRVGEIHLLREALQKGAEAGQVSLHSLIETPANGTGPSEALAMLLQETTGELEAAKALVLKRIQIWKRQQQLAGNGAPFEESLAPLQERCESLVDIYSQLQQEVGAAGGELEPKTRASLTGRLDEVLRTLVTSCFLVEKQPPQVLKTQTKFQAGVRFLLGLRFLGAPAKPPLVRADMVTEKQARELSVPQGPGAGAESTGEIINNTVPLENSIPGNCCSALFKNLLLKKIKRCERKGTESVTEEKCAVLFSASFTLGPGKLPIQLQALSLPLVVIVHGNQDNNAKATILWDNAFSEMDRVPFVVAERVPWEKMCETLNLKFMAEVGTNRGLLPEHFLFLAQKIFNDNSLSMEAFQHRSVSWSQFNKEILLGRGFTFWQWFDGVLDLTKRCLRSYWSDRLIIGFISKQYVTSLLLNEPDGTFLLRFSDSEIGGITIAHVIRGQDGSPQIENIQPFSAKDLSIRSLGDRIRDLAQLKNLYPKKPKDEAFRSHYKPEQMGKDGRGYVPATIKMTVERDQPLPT
Put plainly: STAT6 Fluorescence Polarization (FP) Assay. The experiment is classed as binding. The note with it: STAT6 (W123-T658) 250 nM, probe 5-FAM-Ap[…]-NH2 2 nM, 45-minute incubation; read-out: STAT6 (FP assay IC50 class). The method in brief: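 Serially diluted compounds received a premix of STAT6 (W123-T658, 250 nM) and 5-FAM peptide probe (2 nM) in pH 7.4 HEPES buffer containing DTT and Tween 20. Following 45 min at room temperature, FP was recorded. IC50s were fitted by nonlinear regression; values are binned A (≤300 nM), B (>300-3000 nM), C (>3-30 μM), D (>30 μM).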

T1 sequence (P40763 127-722): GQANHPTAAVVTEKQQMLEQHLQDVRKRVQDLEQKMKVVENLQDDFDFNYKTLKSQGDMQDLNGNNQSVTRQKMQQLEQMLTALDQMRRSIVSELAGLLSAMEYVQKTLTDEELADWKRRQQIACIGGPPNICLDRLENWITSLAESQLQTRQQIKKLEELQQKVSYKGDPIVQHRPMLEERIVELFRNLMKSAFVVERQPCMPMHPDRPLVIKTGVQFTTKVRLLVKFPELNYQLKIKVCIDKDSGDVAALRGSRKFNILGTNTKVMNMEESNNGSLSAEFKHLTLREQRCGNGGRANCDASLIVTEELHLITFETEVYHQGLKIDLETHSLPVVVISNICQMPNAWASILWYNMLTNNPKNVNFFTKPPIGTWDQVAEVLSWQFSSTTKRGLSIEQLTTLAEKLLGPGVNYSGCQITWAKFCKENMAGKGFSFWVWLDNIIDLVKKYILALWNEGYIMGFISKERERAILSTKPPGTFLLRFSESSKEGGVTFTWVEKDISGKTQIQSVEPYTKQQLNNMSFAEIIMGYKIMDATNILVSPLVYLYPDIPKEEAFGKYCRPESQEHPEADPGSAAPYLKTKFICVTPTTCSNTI

The IC50 is the concentration that inhibits the measured activity by half. In the case of `O=C(N[C@H]1CCC[C@H]2CC[C@@H](C(=O)N3CC(c4ncccc4F)C3)N2C1=O)c1cc2cc(C(F)P(=O)(O)O)ccc2s1` (stereo partly drawn) [Compound 623, (fluoro(2-(((3S,6S,9aS)-3-(3-(3-fluoropyridin-2-yl)azetidine-1-carbonyl)-5-oxooctahydro-1H-pyrrolo[1,2-a]azepin-6-yl)carbamoyl)benzo [b]thiophen-5-yl)methyl) phosphonic acid], the IC50 in experiment [1] was 0.1 to 1 µM; in experiment [2], 3 to 30 µM.

Consider `Cn1cncc(C2CN(C(=O)[C@@H]3CC[C@@H]4CCC[C@H](NC(=O)c5cc6cc(C(F)P(=O)(O)O)ccc6s5)C(=O)N43)C2)c1=O` (stereo partly drawn) [Compound 624, (fluoro(2-(((3S,6S,9aS)-3-(3-(1-methyl-6-oxo-1,6-dihydropyrimidin-5-yl)azetidine-1-carbonyl)-5-oxooctahydro-1H-pyrrolo[1,2-a]azepin-6-yl)carbamoyl)benzo [b]thiophen-5-yl)methyl) phosphonic acid], for which the IC50 was 1 to 10 µM in experiment [1] and 3 to 30 µM in experiment [2].

For `COc1c(F)cncc1C1CN(C(=O)[C@@H]2CC[C@@H]3CCC[C@H](NC(=O)c4cc5cc(C(F)P(=O)(O)O)ccc5s4)C(=O)N32)C1` (stereo partly drawn) [Compound 625, (fluoro(2-(((3S,6S,9aS)-3-(3-(5-fluoro-4-methoxypyridin-3-yl)azetidine-1-carbonyl)-5-oxooctahydro-1H-pyrrolo[1,2-a]azepin-6-yl)carbamoyl)benzo [b]thiophen-5-yl)methyl) phosphonic acid], the IC50 in experiment [1] was in the range of 0.1 to 1 µM; in experiment [2] it was 3 to 30 µM.

With `O=C(N[C@H]1CCC[C@H]2CC[C@@H](C(=O)N3CC(c4cnccc4N4CCOCC4)C3)N2C1=O)c1cc2cc(C(F)P(=O)(O)O)ccc2s1` (stereo partly drawn) [Compound 626, (fluoro(2-(((3S,6S,9aS)-3-(3-(4-morpholinopyridin-3-yl)azetidine-1-carbonyl)-5-oxooctahydro-1H-pyrrolo[1,2-a]azepin-6-yl)carbamoyl)benzo [b]thiophen-5-yl)methyl) phosphonic acid], the 50% inhibitory concentration (IC50) is less than 0.1 µM in experiment [1] and 3 to 30 µM in experiment [2].

Consider `CS(=O)(=O)CC1CN(C(=O)[C@@H]2CC[C@@H]3CCC[C@H](NC(=O)c4cc5cc(C(F)P(=O)(O)O)ccc5s4)C(=O)N32)C1` (stereo partly drawn) [Compound 627, (fluoro(2-(((3S,6S,9aS)-3-(3-((methylsulfonyl)methyl)azetidine-1-carbonyl)-5-oxooctahydro-1H-pyrrolo[1,2-a]azepin-6-yl)carbamoyl)benzo [b]thiophen-5-yl)methyl) phosphonic acid], for which the values for the concentration for half-maximal inhibition (IC50) in experiment [1] and in experiment [2] were less than 0.1 µM and 3 to 30 µM, respectively.

Consider `Cn1cccc(C2CN(C(=O)[C@@H]3CC[C@@H]4CCC[C@H](NC(=O)c5cc6cc(C(F)P(=O)(O)O)ccc6s5)C(=O)N43)C2)c1=O` (stereo partly drawn) [Compound 628, (fluoro(2-(((3S,6S,9aS)-3-(3-(1-methyl-2-oxo-1,2-dihydropyridin-3-yl)azetidine-1-carbonyl)-5-oxooctahydro-1H-pyrrolo[1,2-a]azepin-6-yl)carbamoyl)benzo [b]thiophen-5-yl)methyl) phosphonic acid], for which the 50% inhibitory concentration (IC50) in experiment [1] was less than 0.1 µM; in experiment [2] it was 3 to 30 µM.

For the compound `COc1c(C2CN(C(=O)[C@@H]3CC[C@@H]4CCC[C@H](NC(=O)c5cc6cc(C(F)P(=O)(O)O)ccc6s5)C(=O)N43)C2)cnn1C` (stereo partly drawn) [Compound 629, (fluoro(2-(((3S,6S,9aS)-3-(3-(5-methoxy-1-methyl-1H-pyrazol-4-yl)azetidine-1-carbonyl)-5-oxooctahydro-1H-pyrrolo[1,2-a]azepin-6-yl)carbamoyl)benzo [b]thiophen-5-yl)methyl) phosphonic acid], the IC50 in experiment [1] is 0.1 to 1 µM; in experiment [2], 3 to 30 µM.

Take `O=C(N[C@H]1CCC[C@H]2CC[C@@H](C(=O)N3CC4(C3)OCc3ccncc34)N2C1=O)c1cc2cc(C(F)P(=O)(O)O)ccc2s1` (stereo partly drawn) [Compound 630, (fluoro(2-(((3S,6S,9aS)-5-oxo-3-(1′H-spiro[azetidine-3,3′-furo [3,4-c]pyridine]-1-carbonyl)octahydro-1H-pyrrolo[1,2-a]azepin-6-yl)carbamoyl)benzo [b]thiophen-5-yl)methyl) phosphonic acid]: the IC50 in experiment [1] was in the range of 0.1 to 1 µM; in experiment [2] it was 3 to 30 µM.

As for `O=C(N[C@H]1CCC[C@H]2CC[C@@H](C(=O)N3CC(c4cnccc4OC(F)F)C3)N2C1=O)c1cc2cc(CP(=O)(O)O)ccc2s1` [Compound 632, ((2-(((3S,6S,9aS)-3-(3-(4-(difluoromethoxy)pyridin-3-yl)azetidine-1-carbonyl)-5-oxooctahydro-1H-pyrrolo[1,2-a]azepin-6-yl)carbamoyl)benzo [b]thiophen-5-yl)methyl) phosphonic acid], the IC50 fell in the range of 1 to 10 µM in experiment [1] and 3 to 30 µM in experiment [2].

On to `COc1ccn(C2CN(C(=O)[C@@H]3CC[C@@H]4CCC[C@H](NC(=O)c5cc6cc(C(F)P(=O)(O)O)ccc6s5)C(=O)N43)C2)n1` (stereo partly drawn) [Compound 633, (fluoro(2-(((3S,6S,9aS)-3-(3-(3-methoxy-1H-pyrazol-1-yl)azetidine-1-carbonyl)-5-oxooctahydro-1H-pyrrolo[1,2-a]azepin-6-yl)carbamoyl)benzo [b]thiophen-5-yl)methyl) phosphonic acid], for which the half-inhibitory concentration (IC50) was 0.1 to 1 µM in experiment [1] and 3 to 30 µM in experiment [2].

For `Cn1ncc(C2CN(C(=O)[C@@H]3CC[C@@H]4CCC[C@H](NC(=O)c5cc6cc(C(F)P(=O)(O)O)ccc6s5)C(=O)N43)C2)c1F` (stereo partly drawn) [Compound 635, (fluoro(2-(((3S,6S,9aS)-3-(3-(5-fluoro-1-methyl-1H-pyrazol-4-yl)azetidine-1-carbonyl)-5-oxooctahydro-1H-pyrrolo[1,2-a]azepin-6-yl)carbamoyl)benzo [b]thiophen-5-yl)methyl) phosphonic acid], the 50% inhibitory concentration (IC50) is 0.1 to 1 µM in experiment [1] and 3 to 30 µM in experiment [2].

For the compound `O=C(N[C@H]1CCC[C@H]2CC[C@@H](C(=O)N[C@H]3CN(c4ncc[nH]4)C[C@@H]3F)N2C1=O)c1cc2cc([C@H](F)P(=O)(O)O)ccc2s1` [Compound 637, ((R)-fluoro(2-(((3S,6S,9aS)-3-(((3S,4S)-4-fluoro-1-(1H-imidazol-2-yl)pyrrolidin-3-yl)carbamoyl)-5-oxooctahydro-1H-pyrrolo[1,2-a]azepin-6-yl)carbamoyl)benzo [b]thiophen-5-yl)methyl) phosphonic acid], the 50% inhibitory concentration (IC50) in experiment [1] was less than 0.1 µM; in experiment [2], 0.3 to 3 µM.

`C[C@H]1C[C@H]2CC[C@@H](C(=O)N3CC(c4cnccc4N(C)C)C3)N2C(=O)[C@@H](NC(=O)c2cc3cc(CP(=O)(O)O)ccc3s2)C1` [Compound 638, ((2-(((3S,6S,8R,9aR)-3-(3-(4-(dimethylamino)pyridin-3-yl)azetidine-1-carbonyl)-8-methyl-5-oxooctahydro-1H-pyrrolo[1,2-a]azepin-6-yl)carbamoyl)benzo [b]thiophen-5-yl)methyl) phosphonic acid]: the IC50 was less than 0.1 µM in experiment [1] and 3 to 30 µM in experiment [2].

For the compound `C[C@@H]1C[C@H]2CC[C@@H](C(=O)N3CC(c4cnccc4N(C)C)C3)N2C(=O)[C@@H](NC(=O)c2cc3cc(CP(=O)(O)O)ccc3s2)C1` [Compound 639, ((2-(((3S,6S,8S,9aR)-3-(3-(4-(dimethylamino)pyridin-3-yl)azetidine-1-carbonyl)-8-methyl-5-oxooctahydro-1H-pyrrolo[1,2-a]azepin-6-yl)carbamoyl)benzo [b]thiophen-5-yl)methyl) phosphonic acid], the values for the IC50 in experiment [1] and in experiment [2] were less than 0.1 µM and 3 to 30 µM, respectively.

Regarding `O=C(N[C@H]1CCCC[C@H]2CC[C@@H](C(=O)NCc3cnc4[nH]cnc4c3)N2C1=O)c1cc2cc(CP(=O)(O)O)ccc2s1` [Compound 640, ((2-(((3S,6S,10aS)-3-(((3H-imidazo[4,5-b]pyridin-6-yl)methyl)carbamoyl)-5-oxodecahydropyrrolo [1,2-a]azocin-6-yl)carbamoyl)benzo [b]thiophen-5-yl)methyl) phosphonic acid], the IC50 in experiment [1] is 0.1 to 1 µM; in experiment [2], 3 to 30 µM.

Regarding `C/C1=C/C[C@H](NC(=O)c2cc3cc(C(F)(F)P(=O)(O)O)ccc3s2)C(=O)N2[C@H](CC[C@H]2C(=O)N2CC(c3cnccc3C)C2)C1` [Compound 641, (difluoro(2-(((3S,6S,10aR,Z)-9-methyl-3-(3-(4-methylpyridin-3-yl)azetidine-1-carbonyl)-5-oxo-1,2,3,5,6,7,10,10a-octahydropyrrolo[1,2-a]azocin-6-yl)carbamoyl)benzo [b]thiophen-5-yl)methyl) phosphonic acid], the IC50 in experiment [1] was less than 0.1 µM; in experiment [2] it was 0.3 to 3 µM.

These data come from patent US20250215029A1 (Recludix Pharma, Inc., priority 2022, published 2025).
